We go through two compounds from publication PMC8579695, “The Stringent Response Inhibits 70S Ribosome Formation in Staphylococcus aureus by Impeding GTPase-Ribosome Interactions” (mBio, 2021).

Structures are written as SMILES. Read-outs that look alike come from different tables or passages of the source.

In assay [1] the test system is HflX association to the 30S and 50S ribosomal subunits. As to the kind of experiment: In vitro ribosome association assay (sucrose gradient, α-His Western immunoblot), HflX. The format is binding, Staphylococcus aureus. The following applies: 40 μM nucleotide; compared to apo, GTP, or GMPPNP-bound states. An excerpt: (§1) It is well characterized that rRNA transcription decreases during the stringent response ([39]). In addition, the GTPase activity of ribosome assembly cofactors is inhibited by (p)ppGpp, both of which contribute to a reduction in mature ribosomes within the cell ([27]). To examine mechanistically how (p)ppGpp-GTPase interactions affect the ability of RA-GTPases to associate with ribosomal subunits, we examined the association of each GTPase to either the 30S or 50S ribosomal subunit in the presence of GDP, GTP, ppGpp, and pppGpp, as well as GMPPNP, a nonhydrolyzable analogue of GTP. The production and isolation of immature subunits, which can comprise several different immature states, introduces a large degree of heterogeneity, and so here we, and others, use homogenous mature particles as a system to examine the binding event, rather than the role of GTPase activity in downstream maturation ([11], [12], [29], [40], [41]). His-tagged GTPases were preincubated with highly pure, salt-washed 70S S. aureus ribosomes in a low-magnesium buffer to encourage ribosomal subunit dissociation, and the amount of each GTPase associated with each of the subunits was quantified by Western immunoblotting with anti-His antibodies after sucrose gradient separation. […]
(§2) FIG 2 (p)ppGpp and GDP binding reduces RA-GTPase association to the ribosome. […] After subunit separation and precipitation, bound proteins were detected in the 30S fraction using HRP-conjugated α-His antibodies. […] Bound proteins were detected in the 50S fraction using HRP-conjugated α-His antibodies. […]
(§3) A 500 nM concentration of recombinant 6×His-tagged RA-GTPase was incubated at room temperature for 5 min with 200 nM S. aureus 70S ribosomes in dissociation buffer (20 mM Tris [pH 7.5], 120 mM NH4Cl, 1.5 mM MgCl2, 2 mM β-mercaptoethanol) in the apo form and in the presence of 40 μM GTP, GMPPNP, GDP, ppGpp, or pppGpp. […] Gradients were fractionated by upward displacement of 250-μl aliquots, which were analyzed for RNA content at an absorbance of 260 nm. […]

The target of a further assay is RsgA (Staphylococcus aureus, UniProt P67682). Description: DRaCALA binding of 32P-labeled nucleotides to 6×His-tagged RsgA. The following applies: for Bmax, RsgA: Bmax values indicate the fraction bound. The method, then:
The RA-GTPases RsgA, Era, RbgA, and HflX can bind to the guanosine nucleotides GTP, GDP, ppGpp, and pppGpp. Our previous work observed higher binding affinities for ppGpp over GTP, pointing toward a difference in binding between 5′ di- or triphosphate nucleotides ([27]). […] Furthermore, these previous experiments were performed using recombinant proteins fused to large MBP tags, which could impact binding affinity determination. To examine the nucleotide binding affinities of these RA-GTPases for GDP in comparison to ppGpp, pppGpp, and GTP, and in the absence of a large tag, we used a differential radial capillary action of ligand assay (DRaCALA) with recombinant RsgA, RbgA, Era, and HflX fused to a smaller 6× His tag (Fig. 1B; see also Fig. S2A to C in the supplemental material) ([36]). In each case, the affinities of 5′ diphosphate-containing GDP and ppGpp were similar in the low μM range and were 2- to 6-fold higher than the affinities of either GTP or pppGpp (Table 1).
Supplementary file : FIG S2 Examination of the binding of GDP, ppGpp, GTP, and pppGpp to RA-GTPases by DRaCALA. (A to C) Determination of binding affinities and Kd values for ^32P-labeled nucleotides to purified recombinant 6×His-tagged RsgA (A), Era (B), and HflX (C). Kd values were determined from the binding curves as previously described ([36]). (D to F) DRaCALA binding assay of recombinant RsgA (D), Era (E), and HflX (F) binding to ^32P-labeled GTP, ppGpp, and pppGpp in the presence or absence of 100 μM cold competitors (GTP, GDP, ppGpp, pppGpp, and ATP). All experiments were carried out in triplicate, with error bars representing standard deviations. Download FIG S2, TIF file, 0.9 MB.
The synthesis of (p)ppGpp and differential radial capillary action of ligand assay (DRaCALA) binding and competition assays were performed as described previously ([27]), using recombinant, 6×His-tagged protein at the concentrations specified in the figure legends.

Assay [2] deals with Era association to the 30S ribosomal subunit (Staphylococcus aureus, UniProt Q2FGF6). As to the kind of experiment: In vitro ribosome association assay (sucrose gradient, α-His Western immunoblot), Era. The format is binding. The following applies: 40 μM nucleotide; compared to apo, GTP, or GMPPNP-bound states.
From the text: as §1, §2, §3
On the technique in general: Immunoblotting shows a protein as a band on a membrane.

Chain of RsgA (P67682 whole entry, the tested form may be a part): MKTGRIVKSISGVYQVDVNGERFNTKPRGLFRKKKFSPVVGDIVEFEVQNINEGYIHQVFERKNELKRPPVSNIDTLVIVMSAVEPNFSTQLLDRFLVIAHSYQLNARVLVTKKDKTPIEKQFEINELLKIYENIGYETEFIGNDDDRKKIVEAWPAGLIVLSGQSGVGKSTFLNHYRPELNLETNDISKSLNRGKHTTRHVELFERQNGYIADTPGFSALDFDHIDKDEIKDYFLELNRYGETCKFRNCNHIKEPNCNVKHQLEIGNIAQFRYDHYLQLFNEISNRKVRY
Chain of Era association to the 30S ribosomal subunit (Q2FGF6 whole entry): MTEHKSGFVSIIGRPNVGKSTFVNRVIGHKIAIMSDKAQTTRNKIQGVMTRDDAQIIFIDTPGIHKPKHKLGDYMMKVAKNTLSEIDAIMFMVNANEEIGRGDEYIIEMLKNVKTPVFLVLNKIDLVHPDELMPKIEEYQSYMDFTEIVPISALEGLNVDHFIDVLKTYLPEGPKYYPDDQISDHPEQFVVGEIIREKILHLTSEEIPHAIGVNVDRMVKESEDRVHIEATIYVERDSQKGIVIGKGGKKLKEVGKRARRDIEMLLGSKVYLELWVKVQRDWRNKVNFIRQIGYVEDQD

As a reminder, the Kd is the equilibrium constant for the complex coming apart. Take `Nc1nc2c(ncn2[C@@H]2O[C@H](COP(=O)(O)OP(=O)(O)O)[C@@H](OP(=O)(O)OP(=O)(O)O)[C@H]2O)c(=O)[nH]1` [ppGpp]: the “reduction in ribosome binding of HflX” value in assay [1] is recorded as 2 fold. In addition, on RsgA (mean ± SEM, 32P-labeled nucleotide, 6×His-tagged protein, read-out: Kd, RsgA), the Kd amounted to 2.2 ± 0.2 µM. The “Bmax, RsgA” value on RsgA (mean ± SEM) is given as 0.9 ± 0.0. The “reduction in ribosome binding of Era” value in assay [2] was determined as 2 fold.

For the compound `Nc1nc2c(ncn2[C@@H]2O[C@H](COP(=O)(O)OP(=O)(O)OP(=O)(O)O)[C@@H](OP(=O)(O)OP(=O)(O)O)[C@H]2O)c(=O)[nH]1` [pppGpp], in assay [1], the “reduction in ribosome binding of HflX” value came to 2 fold. The affinity on RsgA, expressed as Kd, was 10.1 ± 2.2 µM. The “Bmax, RsgA” value on RsgA (mean ± SEM) is 0.4 ± 0.0. Besides, the “reduction in ribosome binding of Era” value in assay [2] is listed as 2 fold.
